Reference: PMC7155171, “Probing the Open Global Health Chemical Diversity Library for Multistage-Active Starting Points for Next-Generation Antimalarials” (ACS Infectious Diseases, 2020)
Like-named read-outs stand apart in the source and are kept apart here.

How the values were obtained:
Assay type in all cases: cell-based, Plasmodium falciparum
[1] = test system: P. falciparum Dd2 (PfLuc) line expressing firefly luciferase, asexual blood stage; assay: microbe, parasite or virus in culture; details: Plasmodium falciparum
P. falciparum Dd2 = assay: SYBR green I asexual blood stage proliferation assay (96 h); details: Plasmodium falciparum, DD2, 11-pt dose response, 96hr
[2] = test system: P. falciparum (NF54) stage V gametocytes; assay: Stage V gametocyte viability assay (MitoTracker Red CMXRos high content imaging); details: for inhibition at 2 µM: read-out: Stg V Gam primary screen: Inhibition % (2uM) (n=2)
[3] = DD2, read-out: CDD P. falciparum Luciferase ABS 11-pt Reconfirmation Dose Response (48hr): IC50 (μM), 11-pt dose response, 48hr
[4] = DD2, 8-pt dose response, 96hr, read-out: CDD P. falciparum Luciferase ABS 8-pt Reconfirmation Dose Response (96hr): IC50
[5] = DD2, 8-pt dose response, 96hr, read-out: CDD P. falciparum Luciferase ABS 8-pt Reconfirmation Dose Response (96hr): Maximum inhibition (%)
[6] = DD2, 11-pt dose response, 48hr, read-out: CDD P. falciparum Luciferase ABS 11-pt Reconfirmation Dose Response (48hr): Maximum inhibition (%)
[7] = DD2, 11-pt dose response, 96hr, read-out: CDD P. falciparum Luciferase ABS 11-pt Reconfirmation Dose Response (96hr): IC50
[8] = DD2, 11-pt dose response, 96hr, read-out: CDD P. falciparum Luciferase ABS 11-pt Reconfirmation Dose Response (96hr): Maximum inhibition (%)
[9] = Sybr Green I, read-out: CDD P. falciparum Sybr Green I ABS 11-pt Reconfirmation Dose Response (96hr): IC50
[10] = Sybr Green I, read-out: CDD P. falciparum Sybr Green I ABS 11-pt Reconfirmation Dose Response (96hr): Maximum inhibition (%)
[11] = Plasmodium falciparum, NF54, 72 h, read-out: Stg V Gam dose response IC50 (µM) (n=3), 10-point dose response, n=3, 72 h
[12] = Plasmodium falciparum, NF54, 72 h
[13] = DD2, read-out: P. falciparum Luciferase ABS 11-pt Reconfirmation Dose Response (48hr): IC50, 11-pt dose response, 48hr
[14] = DD2, 8-pt dose response, 96hr, read-out: P. falciparum Luciferase ABS 8-pt Reconfirmation Dose Response (96hr): IC50
[15] = DD2, 11-pt dose response, 48hr, read-out: P. falciparum Luciferase ABS 11-pt Reconfirmation Dose Response (48hr): Maximum inhibition (%)
[16] = DD2, 11-pt dose response, 96hr, read-out: P. falciparum Luciferase ABS 11-pt Reconfirmation Dose Response (96hr): IC50
[17] = DD2, 11-pt dose response, 96hr, read-out: P. falciparum Luciferase ABS 11-pt Reconfirmation Dose Response (96hr): Maximum inhibition (%)
[18] = read-out: P. falciparum Sybr Green I ABS 11-pt Reconfirmation Dose Response (96hr): IC50
[19] = read-out: P. falciparum Sybr Green I ABS 11-pt Reconfirmation Dose Response (96hr): Maximum inhibition (%)
[20] = Plasmodium falciparum, NF54, 72 h, read-out: GAM V IC50, stage V gametocytes, 72 h

In the case of Cc1nn(C)cc1C1=NS(=O)(=O)N(C)C(C(=O)Nc2ccc(Br)cc2)=C1 [DDD01058697, CN1C=C(C(C)=N1)C1=NS(=O)(=O)N(C)C(=C1)C(=O)NC1=CC=C(Br)C=C1], the IC50 [1, 3] is reported as 0.55 µM, the IC50 [1, 4] is reported as 0.2 µM and the Emax [1, 5] is reported as 95.2%. For the same compound, the Emax [1, 6] was 99.4%, the IC50 [1, 7] was 0.281 µM and the Emax [1, 8] was 101%. It also gave an IC50 (P. falciparum Dd2; [9]) of 0.321 µM, an Emax (P. falciparum Dd2; [10]) of 99.9% and an IC50 ([2]; Plasmodium falciparum, NF54, read-out: Stg V Gam dose response IC50 (µM) (n=3), 10-point dose response, n=3, 72 h) of 2.78 µM. For the same compound, the inhibition at 2 µM ([2]; Plasmodium falciparum, NF54, Table S6, 2uM, n=2, 72 h) was 53.2%.

In the case of COc1ccc(C)cc1CN1CCC(c2cc3ncccc3cn2)CC1 [DDD01058767, COC1=CC=C(C)C=C1CN1CCC(CC1)C1=NC=C2C=CC=NC2=C1], the IC50 [1, 3] is reported as 0.0507 µM, the IC50 [1, 4] is reported as 0.25 µM and the Emax [1, 5] is reported as 96.3%. It also gave an Emax [1, 6] of 98.5%, an IC50 [1, 7] of 0.0439 µM and an Emax [1, 8] of 100%. It also gave an IC50 (P. falciparum Dd2; [9]) of 0.136 µM, an Emax (P. falciparum Dd2; [10]) of 101% and an IC50 [2, 11] of 2.51 µM. For the same compound, the inhibition at 2 µM [2, 12] was 85.5%.

Work on CC(C)(C)c1cn2c(n1)C(CNCc1ccccn1)CCC2 (centres unmarked) [DDD01062588, CC(C)(C)C1=CN2CCCC(CNCC3=CC=CC=N3)C2=N1] yielded an IC50 [1, 13] of 2.9 µM, an IC50 [1, 14] of 1.44 µM and an Emax ([1]; DD2, 8-pt dose response, 96hr, read-out: P. falciparum Luciferase ABS 8-pt Reconfirmation Dose Response (96hr): Maximum inhibition (%)) of 91.5%. It also gave an Emax [1, 15] of 90.4%, an IC50 [1, 16] of 1.41 µM and an Emax [1, 17] of 98.6%. It also gave an IC50 (P. falciparum Dd2; [18]) of 1.72 µM, an Emax (P. falciparum Dd2; [19]) of 87.3% and an IC50 [2, 20] of 0.07 µM. It also gave an IC50 [2, 11] of 0.069 µM and an inhibition at 2 µM [2, 12] of 86.8%.

Fc1cccc(C(NCc2ncc[nH]2)c2ccccn2)c1 (centres unmarked) [DDD01064153, FC1=CC=CC(=C1)C(NCC1=NC=CN1)C1=CC=CC=N1] gave an IC50 [1, 3] of 5.61 µM, an IC50 [1, 4] of 0.45 µM and an Emax [1, 6] of 86.1%. It also gave an IC50 [1, 7] of 0.644 µM, an Emax [1, 8] of 97.4% and an IC50 (P. falciparum Dd2; [9]) of 5.58 µM. For the same compound, the Emax (P. falciparum Dd2; [10]) was 82.6%, the IC50 [2, 20] was 1.55 µM and the IC50 [2, 11] was 1.55 µM. It also gave an inhibition at 2 µM [2, 12] of 63.2%.

In the case of Clc1cccc(C(NCc2ncc[nH]2)c2ccccn2)c1 (centres unmarked) [DDD01064155, ClC1=CC=CC(=C1)C(NCC1=NC=CN1)C1=CC=CC=N1], the IC50 [1, 3] is reported as 1.99 µM, the IC50 [1, 4] is reported as 0.27 µM and the Emax [1, 5] is reported as 94.2%. For the same compound, the Emax [1, 6] was 94.1%, the IC50 [1, 7] was 0.408 µM and the Emax [1, 8] was 98.7%. For the same compound, the IC50 (P. falciparum Dd2; [9]) was 3.75 µM, the Emax (P. falciparum Dd2; [10]) was 88.1% and the IC50 [2, 20] was 2.06 µM. It also gave an IC50 [2, 11] of 2.06 µM and an inhibition at 2 µM [2, 12] of 59.1%.

Work on CNc1cc(C)nc(NC2CCCN(C3Cc4ccccc4C3)C2)n1 (centres unmarked) [DDD01243506, CNC1=CC(C)=NC(NC2CCCN(C2)C2CC3=CC=CC=C3C2)=N1] yielded an IC50 [1, 13] of 1.16 µM, an IC50 [1, 14] of 1.33 µM and an Emax [1, 15] of 94.3%. It also gave an IC50 [1, 16] of 0.707 µM, an Emax [1, 17] of 100% and an IC50 (P. falciparum Dd2; [18]) of 0.957 µM. The Emax (P. falciparum Dd2; [19]) was 96.1%, the IC50 [2, 11] was 2.91 µM and the inhibition at 2 µM [2, 12] was 62.9%.

CN(Cc1ccsc1)c1nc(-c2ccccn2)nc2c1CCNCC2 [DDD01243664, CN(CC1=CSC=C1)C1=NC(=NC2=C1CCNCC2)C1=CC=CC=N1] gave an IC50 [1, 3] of 0.752 µM, an IC50 [1, 4] of 0.52 µM and an Emax [1, 5] of 95.1%. It also gave an Emax [1, 6] of 89.8%, an IC50 [1, 7] of 0.299 µM and an Emax [1, 8] of 98.7%. The IC50 ([1]; DD2, asexual blood stage, assay format not given, read-out: ABS IC50) was under 1 µM, the IC50 (P. falciparum Dd2; [9]) was 0.872 µM and the Emax (P. falciparum Dd2; [10]) was 78.7%. The IC50 [2, 20] was 0.73 µM, the IC50 [2, 11] was 0.732 µM and the inhibition at 2 µM [2, 12] was 95.1%. For the same compound, the IC50 ([2]; read-out: GAM V IC50, stage V gametocytes, 72 h) was under 1 µM.

Compound CN(CCO)Cc1cc(Cl)ccc1OCC(O)CN1CCCCCC1 (centres unmarked) [DDD01243745, CN(CCO)CC1=CC(Cl)=CC=C1OCC(O)CN1CCCCCC1] has an IC50 [1, 3] of 2.92 µM, an IC50 [1, 4] of 0.95 µM and an Emax [1, 5] of 93.5%. For the same compound, the Emax [1, 6] was 97%, the IC50 [1, 7] was 1.45 µM and the Emax [1, 8] was 98.8%. For the same compound, the IC50 (P. falciparum Dd2; [9]) was 1.09 µM, the Emax (P. falciparum Dd2; [10]) was 99.1% and the IC50 [2, 11] was 5.69 µM. It also gave an inhibition at 2 µM [2, 12] of 54.7%.

Compound OC1(CN2CCC(Oc3cccc(C(F)(F)F)c3)CC2)CCNC1 (centres unmarked) [DDD01245291, OC1(CN2CCC(CC2)OC2=CC=CC(=C2)C(F)(F)F)CCNC1] has an IC50 [1, 3] of 2.08 µM, an IC50 [1, 4] of 0.88 µM and an Emax [1, 5] of 93.8%. For the same compound, the Emax [1, 6] was 95.9%, the IC50 [1, 7] was 0.958 µM and the Emax [1, 8] was 99.5%. The IC50 (P. falciparum Dd2; [9]) was 1.93 µM, the Emax (P. falciparum Dd2; [10]) was 96.4% and the IC50 [2, 11] was 2.42 µM. It also gave an inhibition at 2 µM [2, 12] of 50.1%.

Compound CCc1ccc2nc(NCCCN(CCO)CCO)cc(C)c2c1 [DDD01247914, CCC1=CC=C2N=C(NCCCN(CCO)CCO)C=C(C)C2=C1] has an IC50 [1, 3] of 3.94 µM, an IC50 [1, 4] of 1.07 µM and an Emax [1, 5] of 91.1%. The Emax [1, 6] was 92.3%, the IC50 [1, 7] was 1.68 µM and the Emax [1, 8] was 99.8%. For the same compound, the IC50 (P. falciparum Dd2; [9]) was 3.61 µM, the Emax (P. falciparum Dd2; [10]) was 94% and the IC50 [2, 11] was 3.72 µM. For the same compound, the inhibition at 2 µM [2, 12] was 59.7%.
